Source: US7511119B2, “PRAME peptide analogues” (MannKind Corporation, priority 2005, dated 2009)
Square brackets hold non-standard residues; d marks the D form. Ends that are not written are not given here. Nle = CCCC[C@H](N)C(=O)O; Nva = CCC[C@H](N)C(=O)O

How the values were obtained:
[1] = tested on: 624.38 melanoma cells; assay: Ex vivo cytotoxicity against PRAME+ A2+ human tumor cells; type: in vivo; settings: splenocytes restimulated ex vivo with native PRAME peptide
Experimental: This was followed by two peptide boosts (2.5 μg) at day 28 and 31, with the analog L426Nva L433Nle.

[2] = target: T1, HLA-A*0201 (Homo sapiens, UniProt P04439, D140Y/D185E/D98H/E176V/E277Q/G131W/G231S/I119V/I121R/I166T/I218V/L300P/L318F/N151K/N90K/P208A/P217A/Q86G/Q94H/R138H/R169H/T345S); assay: iTopia affinity assay (ED50); type: binding; settings: PRAME425-433 analogs; affinity lower than native
Source text: Avidin-coated microtiter plates containing class I monomer loaded with a so-called placeholder peptide were used to evaluate peptide binding, affinity and off-rate. The monomer-coated plates were supplied as part of the iTopia Epitope Discovery System Kit (Beckman Coulter, Inc., San Diego, Calif., USA). Assay buffers, anti-MHC-FITC mAb and beta2-microglobulin and control peptides were also supplied with the kits.
Plates were read on the fluorometer. Sigmoidal dose response curves were generated using Prism software.

[3] = tested on: 624.38 cells; assay: Ex vivo cytotoxicity against human tumor cells after boost with tyrosinase analogs; type: in vivo; settings: pSEM prime, peptide boost; FIG. 41
Experimental: HHD transgenic mice (n=4/group) were immunized (according to the general protocol in FIG. 40) with plasmid (pSEM) expressing the Tyrosinase369-377 epitope by direct inoculation into the inguinal lymph nodes of 25 μg of plasmid in 25 μl of PBS per lymph node at day 0, 3, 14 and 17. […] One week after the boost, splenocytes were stimulated ex vivo with the native Tyrosinase369-377 peptide and assayed against ^51Cr-labeled human tumor cells (624.38 cells) at various E:T ratios. […] Together with the preceding example, this observation illustrates the usefulness of complementing more stringent assays (in vivo cytotoxicity and tetramer staining) with more sensitive assays (ex vivo cytotoxicity after in vitro stimulation) to outline potentially useful analogs.

[4] = tested on: native peptide loaded splenocytes; assay: In vivo cytotoxicity against native PRAME peptide-loaded splenocytes (CFSE); parameters: species or system HHD transgenic mice; settings: pCTLR2 prime, peptide boost; FIGS. 30-31
[5] = tested on: PRAME425-433-specific T cells; assay: Tetramer/CD8 co-staining of PRAME425-433-specific T cells; type: in vivo, HHD transgenic mice; settings: versus boost with negative control peptide; FIG. 31
[6] = tested on: target cells coated with wild-type peptide; assay: In vivo cytotoxicity against wild-type NY-ESO-1 peptide-coated target cells; parameters: species or system HHD mice; settings: plasmid entrain, peptide amplify; FIGS. 15-16
Experimental: (§1) These cells were then stained with CFSE^hi and CFSE^med fluorescence (4.0 μM or 1 μM, respectively, for 15 minutes) and intravenously co-injected into immunized mice with an equal number of control splenocytes stained with CFSE^lo fluorescence (0.4 μM). Eighteen hours later the specific elimination of target cells was measured by removing the spleens and PBMC from challenged animals and measuring CFSE fluorescence by flow cytometry. The relative depletion of the populations corresponding to peptide loaded splenocytes was calculated relative to the control (unloaded) population and expressed as % specific lysis.

[7] = tested on: splenocytes; assay: Ex vivo IFN-gamma production after re-stimulation with wild-type NY-ESO-1157-165 (ELISA); type: in vivo, mice; settings: 10 μM wild-type peptide, 3 and 6 days; FIG. 17
Source text: Supernatants were harvested and the concentration of IFN-γ measured by ELISA.

[8] = target: T2, A0201 restricted MHC Class 1 molecules (Homo sapiens, UniProt P04439, D140Y/D185E/D98H/E176V/E277Q/G131W/G231S/I119V/I121R/I166T/I218V/N151K/N90K/P208A/P217A/Q86G/Q94H/R138H/R169H); assay: iTopia off-rate assay (T1/2); type: binding; settings: compared with the respective native peptide
Experimental: (§2) Avidin-coated microtiter plates containing class I monomer loaded with a so-called placeholder peptide were used to evaluate peptide binding, affinity and off-rate. […] Assay buffers, anti-MHC-FITC mAb and beta2-microglobulin and control peptides were also supplied with the kits.
The plates were then incubated on the allele-specific monomer plates at 37° C. The plates were measured at multiple time points (0, 0.5, 1, 1.5, 2, 4, 6 and 8 hrs) for relative fluorescence intensity. The time required for 50% of the peptide to dissociate from the MHC monomer is defined as the T1/2 value (hrs).
The binding and offrate (T1/2) was determined for six native epitopes and their analogs which were designed to enhance the immune response.

[9] = target: T2, A0201 restricted MHC Class 1 molecules; assay: iTopia binding assay (% binding); settings: compared with the native peptide
Source text: as §2
This assay measures the ability of individual peptides to bind HLA molecules under standardized optimal binding conditions. Monomer-coated plates were first stripped, releasing the placeholder peptide and leaving only the MHC heavy chain bound to the plate. Test peptides were then introduced under optimal folding conditions, along with the anti-MHC-FITC mAb. […] The anti-MHC-FITC mAb binds preferentially to a refolded MHC complex. Therefore, the fluorescence intensity resulting from each peptide was related to the peptide's ability to form complex with MHC molecule. Each peptide's binding was evaluated relative to the positive control peptide provided in the kit, and the results were expressed “% binding”.

[10] = target: T1, HLA-A*0201; assay: Peptide binding using T2 cells; settings: compared with wild-type peptide;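 further: Read-out is peptide-induced stabilization of HLA-A*0201 on the cell surface, reflecting mainly Kon at limiting peptide levels and both Kon and Koff at saturating levels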
Source text: Thus, at limiting concentrations of peptide, it is a measurement of Kon mostly and at saturation levels of peptide it is a measurement of both Kon and Koff.
Thus, at limiting concentrations of peptide, this is a measurement of Kon mostly and at saturation levels of peptide that is a measurement of both Kon and Koff.

[11] = tested on: native PSMA288-297 peptide; assay: Cross-reactive immunogenicity of PSMA analogs, IFN-gamma ELISPOT; type: in vivo, HHD transgenic mice; settings: peptide plus pI:C intranodal; FIG. 22
Experimental: Groups of HHD transgenic mice (n=8) were immunized with peptide (natural epitope PSMA288-297, or analogs bearing substitutions at primary or secondary anchor residues) by direct inoculation into the inguinal lymph nodes, with 25 μg in 25 μl of PBS+12.5 μg of pI:C to each lymph node at day 0, 3, 14 and 17.
Mice were sacrificed at 10 days after the last boost, and splenocytes prepared and assessed for IFN-γ production by ELISPOT analysis. […] At 48 hours after incubation, the assay was developed and the frequency of cytokine-producing T cells that recognized native PSMA288-297 peptide was automatically counted. The data is represented in FIG. 22 as the number of spot forming colonies/well (mean of triplicates±SD). […] To the extent that the poor immunogenicity of the native epitope reflects tolerance, the improved activity of these analogs represents tolerance breaking.

[12] = tested on: LnCap cells; assay: Ex vivo cytotoxicity against PSMA+ A2+ human tumor cells; type: in vivo; settings: splenocytes restimulated ex vivo with native PSMA288-297
Experimental: HHD transgenic mice (n=4) were immunized with PSMA288-297 peptide (25 μg in 25 μl of PBS, plus 12.5 μg of pI:C to each lymph node) at day 0, 3, 14 and 17. One week after the boost, splenocytes were stimulated ex vivo with the native PSMA288-297 peptide and tested against ^51Cr-labeled human tumor cells (PSMA^+ A2^+ LnCap cells, or as negative control, LnCap cells coated with MHC class I-blocking antibody) at various E:T ratios.
HHD transgenic mice (n=4) were immunized with plasmid expressing the PSMA288-297 epitope by direct inoculation into the inguinal lymph nodes with 25 μg in 25 μl of PBS to each lymph node at day 0, 3, 14 and 17. This was followed by two peptide boosts (same amount) at day 28 and 31, with the analog I297V. One week after the boost, splenocytes were stimulated ex vivo with the native PSMA288-297 peptide and tested overnight against ^51Cr-labeled human tumor cells (Lncap, A2^+ PSMA^+; or 624.38 A2^+ PSMA^− or control 624.28 cells A2^− PSMA^−) at various E:T ratios.

[13] = tested on: PSMA288-297 peptide; assay: Plasmid prime, peptide boost, IFN-gamma ELISPOT (PSMA288-297); type: in vivo, HHD transgenic mice; settings: versus natural peptide boost, FIG. 23
Experimental: Two groups of HHD transgenic mice (n=8) were immunized with plasmid expressing PSMA288-297 by direct inoculation into the inguinal lymph nodes with 25 μg in […] of PBS to each lymph node at day 0, 3, 14 and 17. This was followed by two peptide boosts (25 μg) at day 28 and 31 with either the natural peptide or the I297V analog.
Mice were sacrificed at 10 days after the last boost, and splenocytes prepared and assessed for IFN-γ production by ELISPOT analysis. […] At 48 hours after incubation, the assay was developed and the frequency of cytokine-producing T cells that recognized the PSMA288-297 peptide was automatically counted. The data is represented in FIG. 23 as frequency of specific T cells normalized to 0.5 million responder cells (mean of triplicates+SD).

[14] = tested on: T cell lines against natural epitope SSX-241-49; assay: Cross-reactivity and functional avidity: IFN-gamma production by T cell lines raised against natural SSX-2 41-49; type: cell-based, HHD transgenic mice; settings: T cells raised to native peptide tested on analogs; footnote * and unit not given;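 further: analogs presented ex vivo by competent APCs to T cells specific for the non-mutated epitope, scored by lowest activating concentration, peak cytokine effect and concentration at that peak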
[15] = tested on: T2 cells; assay: Ex vivo cytotoxicity against 51Cr-labeled T2 target cells after plasmid prime and peptide boost; type: in vivo, mice; settings: plasmid prime, peptide boost; splenocytes restimulated ex vivo; FIG. 8
Experimental: Three groups of mice (n=4) were immunized with a plasmid expressing SSX-241-49 natural epitope by direct inoculation into the inguinal lymph nodes with 25 μg in 25 μl of PBS/each lymph node at day 0, 3, 14 and 17. This was followed by two additional peptide boosts (similar amount) at day 28 and 31. One week after the boost, splenocytes were stimulated ex vivo with SSX-241-49 natural peptide and tested against ^51Cr-labeled target cells (T2 cells) at various E:T ratios (FIG. 8). […] This correlated with the binding and stability parameters determined by ex vivo experimentation.

[16] = tested on: target cells coated with natural peptide; assay: In vivo cytotoxicity against splenocytes coated with natural SSX-2 41-49 peptide (CFSE); parameters: species or system HHD mice; settings: spleen and blood; targets coated with 20 μg/ml and 1 μg/ml natural peptide
Experimental: Eight groups of mice (n=4) were immunized with plasmid expressing SSX-241-49 natural epitope, by direct inoculation into the inguinal lymph nodes with 25 μg in 25 μl of PBS/each lymph node at day 0, 3, 14 and 17. This was followed by two additional peptide boosts (similar amount) at day 28 and 31, using a negative control peptide (Melan A 26-35 “EAA”), natural peptide or analogs as shown in FIG. 9.
as §1, with “To evaluate the in vivo response against natural peptide, splenocytes were isolated from littermate control HHD mice and incubated with 20 μg/mL or 1 μg/ml of natural peptide for 2 hours. These” for “These”, “CFSE^hi” for “CFSE^hi and CFSE^med”, “[…]” for “1 μM, respectively,”, “spleen” for “the spleens”, “lysis. FIG. 10 (spleen) and 11 (blood) show the in vivo cytotoxicity elicited by the regimens described in FIG. 7.” for “lysis.”

[17] = tested on: 624.38 melanoma cells; assay: Ex vivo cytotoxicity against human tumor cells after boost with SSX-2 analogs; type: in vivo; settings: plasmid prime, peptide boost; FIG. 12
Experimental: Eight groups of mice (n=4) were immunized with plasmid expressing SSX-241-49 natural epitope by direct inoculation into the inguinal lymph nodes with 25 ug in 25 ul of PBS/each lymph node at day 0, 3, 14 and 17. This was followed by two additional peptide boosts (similar amount) at day 28 and 31, using a negative control peptide (Melan A 26-35 “EAA”), natural peptide or analogs as shown in FIG. 9.

[18] = target: T3, HLA-A*0201 class I monomer of the iTopia Epitope Discovery System; assay: iTopia affinity and off-rate assays
T3 construct: also called A0201 restricted MHC Class 1 molecules; MHC monomer

[19] = target: T3, HLA-A*0201 class I monomer of the …; assay: iTopia affinity assay
[20] = target: T3, HLA-A*0201 class I monomer of the …; assay: iTopia off-rate assay

## SLLQHLIGL [PRAME 425-433, reference compound]
[1]
  cytotoxicity against 624.38 human tumor cells: able to lyse human tumor cells

## Ala substitution: PRAME425-433 analog with Ala at the PΩ anchor position (SLLQHLIGA; UniProt P78395 425-433, looked up, variant L433A)
[2]
  ED50 relative to native peptide: more than 10 fold

## YVDGTMSQNva (YVDGTMSQ[Nva]) [M370V V377Nva]
[3]
  cytotoxicity against 624.38 cells: robust cytotoxicity

## T{Nva}LQHLIG{Nle} (T[Nva]LQHLIG[Nle]) [S425T L426Nva L433Nle]
[4]
  in vivo cytotoxicity against native epitope, in words: capable of expanding the immunity against the native epitope
[5]
  expansion of T cells specific against the native epitope (tetramer staining): significantly higher

## SNvaLMWITQV (S[Nva]LMWITQV) [Nyeso-1 157-165 (L158Nva, C165V))]
[6]
  in vivo cytotoxicity (% specific lysis), in words: substantial, constant cytotoxicity
[7]
  IFN-gamma production upon ex vivo re-stimulation with wild-type peptide: large levels of IFN-gamma more rapidly
[8]
  stability of binding (half-time of dissociation), in words: Significant increase in the stability

## YMDGTMSQV [Tyrosinase 369-377, reference compound]
[3]
  cytotoxicity against 624.38 cells: robust cytotoxicity

## S425F: PRAME425-433 analog with Phe for the Ser at P1 (FLLQHLIGL) [Peptide S425F]
[9]
  percent binding, in words: exceeded that range on the high side
[4]
  in vivo cytotoxicity against native epitope, in words: capable of expanding the immunity against the native epitope

## GLPSIPVHPI (T cell peptide epitope analog) [PSMA 288-297, reference compound]
[10]
  binding affinity / binding profile with HLA-A*0201 on T2 cells, in words: generally superior binding characteristics
[11]
  priming of immune response against native PSMA288-297 (IFN-γ ELISPOT), in words: poorly immunogenic
[12]
  cytotoxicity against LnCap human tumor cells: able to lyse human tumor cells

## PSMA 288-297(I297V): PSMA288-297 analog with I297V substitution
[11]
  priming of immune response against native PSMA288-297 (IFN-γ ELISPOT), in words: increased priming
[13]
  frequency of native epitope-specific T cells (ELISPOT): considerably higher
[12]
  cytotoxicity against LnCap human tumor cells: effective in mediating cytotoxicity against LNCAP

## CC[C@H](C)[C@H](NC(=O)[C@H](CCCCN)NC(=O)[C@H](CCC(=O)O)NC(=O)[C@H](CO)NC(=O)[C@@H](NC(=O)[C@@H](N)CCCCN)C(C)C)C(=O)N[C@@H](Cc1ccccc1)C(=O)N[C@@H](Cc1ccc(O)cc1)C(=O)N[C@H](C(=O)O)C(C)C [SSX2 41-49 (A42V)]
[14]
  Cross-reactivity and fct avidity (native to analogs)*: 0.03
[15]
  response against target cells expressing the natural peptide: higher response
[16]
  in vivo cytotoxicity (% specific lysis), in words: increased activity
[17]
  cytotoxicity against human tumor cells expressing natural SSX-2 41-49 epitope: increased cytotoxicity

## F[Nva]LQHLIG[Nle] [PRAME425-433 analog with Phe at P1, Nva at P2 and Nle at PΩ]
[18]
  binding result: binds

## SLLQHLIG[Nva] [PRAME425-433 analog with Nva at PΩ]
[19]
  fold difference of ED50 against the native peptide: ≤ 3 fold
[20]
  t1/2: 17.2 h
